In patent US11154515B2, “Pharmaceutical compositions comprising cannabidiol and beta-caryophyllene and methods for their use” (priority 2017, dated 2021):

Test system: OXA-induced ear edema, ACD mouse model
Assay: Oxazolone-induced allergic contact dermatitis model, ear edema
Format: in vivo
Settings: for OXA-induced edema formation: topically applied 1 μM
Method: Prednisolone was solved in 1:1 of DMSO/saline and was administered topically (15-15 μL to the inner and outer surface of the ears). All other test compounds were solved in 96% ethanol. All solutions of all the concentrations were prepared freshly on the first day of every experiment and were stored at 4° C., then shaken properly before the treatments.
Anesthesia was induced by ketamine (Richter Gedeon, Budapest, Hungary) (100 mg/kg i.p., repeated as required) with xylazine (Lavet Ltd., Budapest, Hungary) (5 mg/kg i.m.). Animals were sensitized on two consecutive days by painting 2% oxazolone (50-50 μL, Merck KGaA) on the shaved abdomen. On the 6th day the right ears were smeared with 2% oxazolone (OXA) dissolved in 96% ethanol: 15-15 μL solution was applied on each of the inner and outer surfaces. Control ears were treated with 96% ethanol in the same way. Drug-treated groups were treated with 15-15 μL of drug solution smeared to the inner and outer side of the ears every 4 hrs of the experiment after oxazolone treatment. A schematic of the experimental protocol is provided in FIG. 24 and the experimental groups are defined below. • (a) Group 1: Ethanol-treated Controls: left ear: 96% ethanol, right ear: 2% oxazolone • (b) Group 2: 1 μM CBD • (c) Group 3: 10 μM CBD • (d) Group 4: 1 μM HU101 • (e) Group 5: 10 μMHU101
Ear thickness was measured with an engineer's micrometer, with 0.1 mm accuracy, before challenge with test agents and after the challenge at different time points. Data are expressed as % increase of ear thickness compared to the initial values.
Results are expressed as mean±SEM. Comparisons between different treatment groups were performed using two-way ANOVA followed by Sidak's post hoc test for skin thickness and one-way ANOVA followed by Bonferroni's post hoc test for MPO and vascular leakage. * p<0.05 was considered to be significant.

## C=C(C)[C@@H]1CCC(C)=C[C@H]1c1c(O)cc(CCCCC)cc1O [CBD, cannabidiol]
OXA + CBD 1 μM vs. OXA + CBD 10 μM, 56 h
  Effect in ACD mouse model, significance of ear edema difference: * (* p ≤ 0.05)
OXA vs. OXA + CBD 1 μM, 24 h
  Effect in ACD mouse model, significance of ear edema difference: ** (** p ≤ 0.01)
24 hr time-point
  OXA-induced edema formation: significantly prevented
Later time-points
  OXA-induced edema formation: only minor
Topically applied 10 μM
  anti-inflammatory effect on OXA-induced edema: did not exert any anti-inflammatory effect
